Experimental data from publication PMC6290556, “1,4-Disubstituted Thiosemicarbazide Derivatives are Potent Inhibitors of Toxoplasma gondii Proliferation” (Molecules, 2014).
In brackets after ≈: the same amount, converted by molar mass.

Assays:
[1] = tested on: infected cells; set-up: method as in PMID 20541294; conditions: read-out: LC50 for infected cells; cited from earlier work
[2] = tested on: T. gondii RH strain; assay: quantitative real-time PCR (B1 gene) of T. gondii in infected L929 cells; format: cell-based, Toxoplasma gondii; conditions: assay B qRT-PCR, L929 host cells
Experimental: T. gondii genomic DNA was isolated from the tachyzoites of RH strain with Wizard® SV Genomic DNA Purification System (Promega, Madison, WI, USA) according to the manufacturer’s instruction. The DNA concentration and purity were measured using a NanoPhotometer (Implen, München, Germany), while the integrity of the extracted DNA was tested using an ethidium bromide-stained agarose gel. DNA was used for the detection and quantitationof T. gondii in analyzed samples and it was stored at −20 °C until use.
A quantitative real-time PCR (qRT-PCR) assay, targeting B1 gene was performed to detect and to quantitate T. gondii in analyzed samples (1g, 2b, 2m, 3d, 3l and sulphadiazine) according to the modified protocol of Wahab et al.. […] Amplification was carried out on a 7900HT real-time PCR system (Applied Biosystems, Carlsbad, CA, USA). The reaction mixtures (25 µL) consisted of 1x TaqMan PCR master mix supplemented with ROX (Applied Biosystems), 300 nM probe, 900 nM of each primer and 2 µL of template DNA. For quantification a standard curve was constructed using 10-fold serial dilutions of DNA extracted from a known number of T. gondii. The cycling parameters were: 50 °C for 2 min, initial activation at 95 °C for 10 min, and 45 two-step cycles of 95 °C for 15 s and 60 °C for 1 min. All samples were analyzed in triplicate.

[3] = tested on: T. gondii RH strain tachyzoites; assay: [3H]uracil incorporation assay of T. gondii proliferation in L929 host cells; format: cell-based; conditions: Toxoplasma gondii, L929, read-out: IC50 (50% of T. gondii proliferation inhibition in vitro)
[4] = MTT cell viability assay (ISO 10993-5); format: cell-based, mouse; conditions: mouse, L929 mouse fibroblast cells, 24 h, ± SD
Experimental: (§1) Cell line L929 (ATTC® Catalog No. […] The MTT assay was used according to international standards: ISO 10993-5:2009(E), Biological evaluation of medical devices, Part 5: Tests for in vitro cytotoxicity. […] Then, 1 mg/mL MTT (50 μL/well) was added to each well and incubated at 37 °C, 10% CO2 for 2 h. Mitochondrial dehydrogenases of viable cells reduced the yellowish water-soluble MTT to water-insoluble formazan crystals, which were solubilized with dimethyl sulfoxide (DMSO). The cell culture medium was aspirated cautiously, after which 150 μL DMSO was added to each well and mixed thoroughly. Optical density (OD) was read on the ELISA reader (Multiskan EX, Labsystems, Vienna, VA, USA) at 550 nm. […] All experiments were performed in triplicate.

[5] = tested on: L929 cells; assay: MTT cell viability assay (ISO 10993-5); format: cell-based, mouse; conditions: for CC30 (concentration required for 30% proliferation inhibition in vitro): L929 cells; for viability of L929 cells: 24 h, ± SD
Experimental: as §1

[6] = tested on: T. gondii RH strain tachyzoites; assay: [3H]uracil incorporation assay of T. gondii proliferation in L929 host cells; format: cell-based, Toxoplasma gondii; conditions: assay A [3H]uracil incorporation; for intensity of T. gondii proliferation: vs untreated blank
Experimental: In the next step of our studies, the prepared 1,4-disubstituted thiosemicarbazides (series 1–3) were used to assess the inhibition of T. gondii growth in vitro. For this purpose, intracellular parasites (tachyzoites) of RH strain were incubated with different concentrations of the thiosemicarbazides ranging from 1 to 100 µg/mL. Inhibition of the parasite growth was monitored by measuring the specific incorporation of [^3H]uracil in the parasite’s nucleic acids.
The tachyzoites of T. gondii strain RH – intraspecies type I (ATCC_ Number 50174™) were maintained through passages on female C57BL/6 (H-2^b) and BALB/c (H-2^d) mice with genetically determined high and low susceptibility (respectively) to T. gondii infection (10–12 weeks old). Tachyzoites washed out from the peritoneum cavity were once expanded in vitro on L929 cells.
L929, (2 × 10^4 cells/100 µL/well) were grown in complete medium (IMDM) on 96-well plates. After 24 h incubation, a medium was removed and then T. gondii RH tachyzoites, suspended in culture medium supplemented with 1.0, 5.0, 10.0, 50.0 and 100.0 μg/mL 1,4-disubstituted thiosemicarbazides (1g, 2b, 2m, 3d, 3l) and as a control-sulfadiazine, were added (2 × 10^5 tachyzoites/200 µL/well) to the cell monolayers. After subsequent 48 h incubation 1 µCi/well of [^3H] uracil (Moravek Biochemicals Inc., Brea, CA, USA) was applied to each microculture for further 18–20 h. The amount of the isotope incorporated into the parasite nucleic acid pool, corresponding to the parasite growth, was measured by liquid scintillation counting with 1450 Microbeta Plus Liquid Scintillation Counter (Wallac Oy, Turku, Finland).

[7] = tested on: Gram-positive and Gram-negative bacterial strains; assay: antibacterial assay (disc diffusion / agar dilution); format: cell-based; conditions: even at high concentrations
From the text: The following microorganisms were used in this study: Staphylococcus aureus (ATCC 25923, ATCC 6538, ATCC 29213, NCTC 4163), Staphylococcus epidermidis ATCC 12228, Bacillus subtilis ATCC 6633, Bacillus cereus ATCC 11778, Micrococcus luteus (ATCC 9341, ATCC 10240), Escherichia coli (ATCC 10538, ATCC 25922, NCTC 8196), […] NCTC 4635, Pseudomonas aeruginosa (ATCC 15442, ATCC 27853, NCTC 6749), and Bordetella bronchiseptica ATCC 4617. Initially, antibacterial activity of thiosemicarbazide derivatives was screened on the basis of growth inhibition zone (giz) utilizing the disc diffusion method, according to the Clinical and Laboratory Standards Institute guidelines. For compounds showing the inhibitory effect on the growth of tested bacteria, monitored as an appearance of giz, the minimal inhibitory concentrations (MICs) were determined using agar dilution method, according to the Clinical and Laboratory Standards Institute guidelines. The minimal inhibitory concentrations (MICs) were defined as the lowest concentration of the compound preventing growth of the tested microorganism. In both methods, recommended Mueller-Hinton II agar medium (Becton Dickinson, Heidelberg, Germany) was used. Solutions containing the tested agents were prepared in methanol or DMSO. Ciprofloxacin was used as control antimicrobial agent.

[8] = tested on: Gram-positive bacterial species and clinical isolates of Staphylococcus aureus; set-up: method as in PMID 23428849; conditions: all test microorganisms; cited from earlier work
[9] = target: bacterial topoisomerase IV; set-up: method as in PMID 21080016; conditions: cited from earlier work

Row | Compound | intensity of T. gondii proliferation ([2]; 100 µg/mL) [%] | IC50 [3] [µg/mL] | viability at 24 h, 1 µg/mL [4] [%] | viability at 24 h, 5 µg/mL [4] [%] | viability at 24 h, 10 µg/mL [4] [%] | viability at 24 h, 50 µg/mL [4] [%] | viability at 24 h, 100 µg/mL [4] [%] | viability at 24 h, 500 µg/mL [4] [%] | CC30 (concentration required for 30% proliferation inhibition in vitro) [5] [µg/mL] | intensity of T. gondii proliferation ([2]; 50 µg/mL) [%] | intensity of T. gondii proliferation ([6]; 1 µg/mL) [%] | intensity of T. gondii proliferation ([6]; 5 µg/mL) [%] | intensity of T. gondii proliferation ([6]; 10 µg/mL) [%] | intensity of T. gondii proliferation ([6]; 50 µg/mL) [%] | intensity of T. gondii proliferation ([6]; 100 µg/mL) [%] | other results
1 | Cc1cccc(NC(=S)NNC(=O)c2cccs2)c1 [Compound 1e, 4-(3-Methylphenyl)-1-(thiophen-2-yl)carbonylthiosemicarbazide] |  |  |  |  |  |  |  |  |  |  |  |  |  |  |  | melting point: 188 to 190 °C
2 | Nc1ccc(S(=O)(=O)Nc2ncccn2)cc1 [sulfadiazine, reference compound] | 63.99 ± 10.58 | > 500 |  |  |  |  |  |  |  |  |  |  |  |  |  | CC50 [1]: > 10 mM
3 | Cc1ccccc1NC(=S)NNC(=O)c1ccoc1C [Compound 2b] | 7.29 ± 1.56 | 59 (≈ 204 µM) | 95.3 ± 9.52 | 94 ± 1.78 | 91.9 ± 5.21 | 84.5 ± 1.43 | 78.2 ± 1.61 | 30.3 ± 0.86 | 187.51 | 41.37 ± 9.98 | 98.24 ± 23.83 | 107.95 ± 24.88 | 112.25 ± 22.91 | 58.78 ± 11.49 | 8.10 ± 2.78 | growth-inhibiting effect on bacterial strains [7]: no growth-inhibiting effect
4 | Cc1nnsc1C(=O)NNC(=S)Nc1ccc(F)cc1F [Compound 3l] | 14.08 ± 3.35 | 92.3 (≈ 280 µM) | 96.54 ± 0.69 | 92.87 ± 0.23 | 95.89 ± 0.39 | 99 ± 10 | 89.5 ± 3.44 | 48 ± 10.1 | 285.52 | 89.32 ± 15.74 | 84.59 ± 16.61 | 85.76 ± 19.71 | 103.21 ± 19.27 | 88.34 ± 14.40 | 37.20 ± 7.47 | antibacterial screening [8]: ineffective
5 | Cc1nc[nH]c1C(=O)NNC(=S)NC(=O)c1ccccc1 [4-benzoyl-1-(4-methyl-imidazol-5-yl)carbonylthiosemicarbazide] |  |  |  |  |  |  |  |  |  |  |  |  |  |  |  | IC50 [9]: 90 µg/mL (≈ 297 µM)
6 | O=C(NC(=S)NNC(=O)c1cc2ccccc2[nH]1)c1ccccc1 [4-benzoyl-1-(indol-2-yl)carbonyl-thiosemicarbazide] |  |  |  |  |  |  |  |  |  |  |  |  |  |  |  | IC50 [9]: 14 µg/mL (≈ 41.4 µM)
7 | 4-ethyl-1-(2-methylfuran-3-yl)carbonylthio-semicarbazide [Compound 2m] | 53.03 ± 9.87 |  |  |  |  |  |  |  | >500 | 51.03 ± 7.02 | 98.00 ± 19.53 | 75.74 ± 14.62 | 60.61 ± 9.56 | 66.49 ± 11.38 | 57.59 ± 15.02 | viability of L929 cells ([5]; 1 µg/mL): 104.05 ± 0.12%; viability of L929 cells ([5]; 5 µg/mL): 94.44 ± 2.62%; viability of L929 cells ([5]; 10 µg/mL): 94.05 ± 5.13%; viability of L929 cells ([5]; 50 µg/mL): 90.49 ± 2.99 %; viability of L929 cells ([5]; 100 µg/mL): 92.17 ± 2.31 %; viability of L929 cells ([5]; 500 µg/mL): 80.40 ± 2.74 %; IC50 (50% of T. gondii proliferation inhibition in vitro) [6]: 191.04 µg/mL; growth-inhibiting effect on bacterial strains [7]: no growth-inhibiting effect
8 | NC(=O)NO [hydroxyurea] |  |  |  |  |  |  |  |  |  |  |  |  |  |  |  | CC50 [1]: > 10 mM
9 | Cc1nnsc1C(=O)NNC(=S)Nc1ccccc1Br [Compound 3d] | 25.56 ± 6.32 | 74.9 (≈ 201 µM) | 102 ± 3.89 | 99.14 ± 0.82 | 97.5 ± 5.98 | 90.9 ± 6.71 | 79.5 ± 5.82 | 41.5 ± 5.16 | 242.56 | 75.13 ± 10.10 | 90.03 ± 14.61 | 84.64 ± 15.68 | 83.84 ± 19.01 | 63.82 ± 5.32 | 36.52 ± 5.16 | antibacterial screening [8]: ineffective
10 | Cc1ccccc1NC(=S)NNC(=O)c1cccs1 [Compound 1b, 4-(2-Methylphenyl)-1-(thiophen-2-yl)carbonylthiosemicarbazide] |  |  |  |  |  |  |  |  |  |  |  |  |  |  |  | melting point: 155 to 157 °C
